Results: PubChem BioAssay (NCI)
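Assay format: 96-well plates, 48-hour exposure. GI50 marks 50% less growth. At the TGI there is no net growth.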

What was measured:
Assay in all cases: growth of human tumour cells (NCI), 48 h
[1] = tested on: BT-549 breast
[2] = tested on: COLO 205 colon
[3] = tested on: EKVX NSCLC
[4] = tested on: HCT-15 colon
[5] = tested on: IGROV1 ovarian
[6] = tested on: MCF7 breast
[7] = tested on: NCI-H522 lung
[8] = tested on: OVCAR-3 ovarian
[9] = tested on: OVCAR-4 ovarian
[10] = tested on: SF-295 CNS

Row | Structure (SMILES) | TGI [1] [µM] | TGI [2] [µM] | TGI [3] [µM] | TGI [4] [µM] | TGI [5] [µM] | TGI [6] [µM] | TGI [7] [µM] | TGI [8] [µM] | TGI [9] [µM] | TGI [10] [µM] | GI50 [1] [µM] | GI50 [2] [µM] | GI50 [3] [µM] | GI50 [4] [µM] | GI50 [5] [µM] | GI50 [6] [µM] | GI50 [7] [µM] | GI50 [8] [µM] | GI50 [9] [µM] | GI50 [10] [µM]
1 | COc1ccc(CCN2C(=O)C=CC2=O)cc1OC | 35.3 | 3.54 | 41.1 | 3.83 | 36.7 | 39.7 | 3.17 | 36.4 | 5.07 | 33.5 |  |  |  |  |  |  |  |  |  | 
2 | CC(C)=CCC[C@H](C)[C@@H]1CC[C@]2(C)C3CC[C@]4(OC4(C)C)C(CCCO)[C@]3(C)CC[C@@]12C (stereo partly drawn) | 51.7 | > 100 | 50.7 | > 100 | > 100 | 43.6 | > 100 | 52.8 | 59 | 63.3 | 26 | 31.5 | 20.7 | 26.5 | 81.7 | 18.1 | 32.4 | 26.7 | 25.3 | 27.9
3 | Cn1cc(-c2nc(-c3c[nH]c4ncccc34)cs2)c2cc(F)ccc21 | 13.6 | 8.52 | 10.5 | > 45 | 13.1 | 6.53 | 9.89 | 8.25 | 22.2 | 6.93 | 3.7 | 2.69 | 0.6 | 2.88 | 2.51 | 1.13 | 2.7 | 3.02 | 0.0689 | 2.18
4 | Cn1cncc1[C@@](N)(c1ccc(Cl)cc1)c1ccc2c(c1)c(-c1cccc(Cl)c1)cc(=O)n2C | 14.4 | 9.09 | 13.1 | 11.9 | 13 | 13.5 | 5.05 | 7.86 | 14.7 | 6.35 | 3.16 | 2.31 | 2.22 | 2.08 | 2.33 | 1.55 | 0.655 | 2.55 | 2.14 | 0.534
5 | Cn1ccnc1C(=O)/C=C/c1ccc(C(=O)Nc2ccc(Cl)cc2)cc1 | 7.72 | > 33.3 | 22 | 3.12 | 2.62 | 24.1 | 14 | 3.16 | > 33.3 | 6.11 | 0.958 | 1.03 | 2.34 | 0.676 | 0.855 | 0.899 | 1.81 | 0.91 | 0.981 | 1.46
6 | O=C1CC(c2ccc(N3CCOCC3)cc2)(c2ccsc2)NC(=O)C1Sc1ccccc1Cl (stereo not drawn) | > 100 | > 100 | > 100 | > 100 | > 100 | > 100 | > 100 | > 100 | > 100 | > 100 | 16.7 | > 100 | > 100 | 56.7 | 22.4 | 57.2 | 13.8 | 67 | > 100 | 67
7 | Oc1ccc2cc(Br)ccc2c1-c1c(O)ccc2cc(Br)ccc12 | 12.4 | 3.38 | 13.5 | 12.1 | 11.8 | 6.76 | 4.53 | 9.77 | 14.6 | 6.79 | 3.86 | 1.77 | 3.54 | 3.2 | 2.06 | 2.49 | 1.98 | 3.21 | 4.89 | 2.46
8 | Cc1cc2c(cc1Cl)SC1=CC(=O)N(c3ccccc3)C1=NS2(=O)=O | 65.3 | 67 | > 100 | > 100 | > 100 | > 100 | > 100 | > 100 | > 100 | > 100 | 30 | 26.4 | > 100 | > 100 | 53.9 | 39.4 | 67.1 | > 100 | 65.3 | > 100
9 | COc1ccc(-c2[nH]c3ccccc3c2C=C(C#N)C#N)cc1 | > 100 | 0.533 | > 100 | > 100 | > 100 | > 100 | 10.3 | 0.713 | > 100 | 6.3 | 0.769 | 0.223 | 0.648 | 0.587 |  | 0.346 | 0.798 | 0.263 | 0.797 | 0.331
10 | COc1cc(NS(C)(=O)=O)ccc1Nc1c2ccc(Cl)cc2nc2c(OC)cccc12 | 2.24 | 2.35 | 26.7 |  | 6.89 | 13.2 | 2.12 | 2.51 | 16.7 | 1.11 | 0.441 | 0.182 | 6.2 | 0.226 | 0.331 | < 0.0161 | 0.222 | 0.719 | 2.32 | 0.0356
11 | Cn1nccc1Nc1nccc(-c2cc3c(s2)C(C)(C)N(CCN2CCOCC2)C3=O)n1 | 99.8 | > 100 | > 100 | > 100 | > 100 | > 100 | > 100 | > 100 | > 100 | > 100 | 19 | 0.159 | 3.1 | 16.9 | 2.15 | 24.1 | 14.9 | 27.2 | 24 | > 89.9
12 | CC[C@@H](C(=O)[C@@H](C)[C@@H](O)[C@H](C)[C@@H]1O[C@@H]([C@@H](CC)C(=O)O)CC[C@@H]1C)C1O[C@]2(C=CC(=O)[C@]3(CC[C@@](C)([C@H]4CC[C@](O)(CC)[C@H](C)O4)O3)O2)[C@H](C)C[C@@H]1C (stereo partly drawn) | 13.1 | 2.1 | 18.7 | 14.3 | 20.4 | 12.8 | 3.64 | 12.5 | 17.9 | 12.8 | 0.22 | 0.159 | 0.538 | 0.644 | 2.44 | 0.0669 | 0.052 | 0.0547 | 1.1 | 1.21
13 | C/C=C(\C)C(=O)N[C@H]1CC[C@]2(C)C3CC[C@@]4(C)C(CC[C@@H]4C(C)N(C)C)C3CCC2[C@H]1OC(C)=O (stereo partly drawn) | 5.48 | 3.06 | 8.62 | 2.4 | 8.86 | 2.92 | 5.24 | 4.34 | 14.6 | 4.05 | 2.07 | 1.59 | 2.06 | 0.762 | 2.38 | 1.27 | 2.14 | 1.59 | 2.43 | 1.88
14 | c1ccc(Cn2cc3c(c2-c2ccccc2)CCc2cnoc2-3)cc1 | 56.1 | 11.1 | > 100 | > 100 | > 100 | > 100 | > 100 | 24.7 | > 100 | 31.5 | 6.63 | 2.9 | 5.53 | 3.72 | 5.51 | 3.44 | 3.04 | 3.73 | 10.7 | 3.16
